The values below come from US10619195B2, “Gene-expression profiling with reduced numbers of transcript measurements” (Massachusetts Institute of Technology, priority 2010, dated 2020).

Assay [1] relates to histone-deacetylase (HDAC) inhibitor query signature. As to the kind of experiment: L1000 analog of Connectivity Map (1,000 landmark transcripts by LMF plus inference) queried with an HDAC-inhibitor query signature. In kind it is cell-based, human. As to conditions: L1000 dataset, MCF7 cells; published HDAC-inhibitor query signature (Glaser et al.); n=8, p-value<0.001; highest scoring perturbagen. The source says:
This example described one method for the generation of transcriptome-wide gene-expression profiles using measurement of the expression levels of a sub-transcriptome number of cluster centroid landmark transcripts. The present method uses the LMF moderate multiplex gene-expression analysis platform described by Peck et al. (“A method for high-throughput gene expression signature analysis” Genome Biology 7:R61 2006), the Luminex FlexMAP 3D optically-addressed microspheres and flow-cytometric detection system, 1,000 cluster centroid landmark transcripts (and corresponding gene-specific sequences) validated for LMF from Example III (above), a corresponding dependency matrix from Example III (above), 50 empirically-determined invariant transcripts with expression levels spanning the range of those observed, and 1,050 barcode sequences developed. The FlexMAP 3D system allows simultaneous quantification of 500 distinct analytes in samples arrayed in the wells of a 384-well plate. […]
MCF7 cells were treated with small molecules and corresponding vehicles in 384-well plates. […] The captured amplicons were labeled with phycoerythrin and the resulting microsphere populations were analyzed using a FlexMAP 3D instrument in accordance with the manufacturer's instructions. […]

The test system is the same in assay [2]. As to the kind of experiment: Original Connectivity Map (Affymetrix microarrays) queried with an HDAC-inhibitor query signature. It is filed as cell-based, human. To be noted: published HDAC-inhibitor query signature (Glaser et al.), n=12, p-value<0.001, highest score. The text has this:
The term “Connectivity Map” as used herein, refers to a public database of transcriptome-wide gene-expression profiles derived from cultured human cells treated with a plurality of perturbagens, and pattern-matching algorithms for the scoring and identification of significant similarities between those profiles and external gene-expression data, as described by Lamb et al., “The Connectivity Map: using gene-expression signatures to connect small molecules, genes and disease”. Science 313:1929 (2006). Build02 of the Connectivity Map contains 7,056 full-transcriptome gene-expression profiles generated with Affymetrix high-density oligonucleotide microarrays representing the biological effects of 1,309 small-molecule perturbagens, and is available at broadinstitute.org/cmap.
The term “enrichment score” as used herein, refers to a measure of the similarity of the biological effects of a perturbagen used to generate a query signature with those of a perturbagen represented in the Connectivity Map based upon the gene-expression profiles of multiple independent treatments with that perturbagen. […]

Assay [3] relates to canonical NF-κB signaling pathway (BIOCARTA_NFKB_PATHWAY). As to the kind of experiment: Gene-Set Enrichment Analysis of L1000 profiles from macrophages treated with LPS. As to conditions: primary human macrophages, LPS versus vehicle control; L1000 inferred profiles; 512 gene sets tested; p<0.001. It is filed as cell-based. The method, then: The expression levels of 1,000 cluster centroid transcripts were measured in primary human macrophages following treatment with lipopolysaccharide (LPS) or vehicle control, and used to create gene-expression profiles composed of expression levels for 22,268 transcripts, according to the L1000 methods described in Example IV.
LPS is known to be a potent activator of the NF-KB transcription-factor complex (Qin et al., “LPS induces CD40 gene expression through the activation of NF-κB and STAT-1a in macrophages and microglia” Blood 106: 3114-3122 2005).

`O=C(CCCCCCC(=O)Nc1ccccc1)NO` [vorinostat]: the enrichment score in assay [1] was 0.921; in assay [2], 0.973.

For the compound lipopolysaccharide [LPS], the “GSEA score of the BIOCARTA_NFKB_PATHWAY gene set (23 members)” value in assay [3] is listed as “highest score of all gene sets tested”.
